In patent US20240341301A1 (The Regents of the University of Michigan, priority 2023, published 2024):

How the values were obtained:
[1] = system: H3K9 and H3K27 histone acetylation; test: Histone acetylation Western blot in cold-preserved human donor hearts; settings: HTK containing VPA, cold (4° C.) static preservation 8 h
Procedure: (§1) Heart procurement for both human and pigs were performed as follows. A sternotomy is performed under general anesthesia. The pericardium is then opened to create a pericardial cradle for the heart. Heparin (300U/kg) administered through the right atrium or in a peripheral vein. After waiting 3 minute for adequate anticoagulation from heparin, a 9 Fr antegrade plegia infusion catheter is placed in the ascending aorta. Approximately 1 liter of autologous donor arterial blood is then collected into a collection bottle containing heparin. […] Subsequently, the ascending aorta is cross-clamped distal to the cardioplegia catheter and 1 liter of cold (4° C.) HTK solution is infused into the coronaries at a perfusion pressure of ˜80 mmHg to induce mechanical arrest. After excising the heart completely, it is transported to the back-table for infusion of 2 liters of HTK±VPA solution. After completion, the heart is stored in a solution identical to the perfusate at 4° C. on ice.
Pig hearts underwent ex-vivo perfusion after preservation for 4 or 10 hours. Approval for human heart procurement was obtained from the University of Michigan Institutional Review Board (HUM00131275). Human donor hearts from deceased brain death donors were procured as per standard clinical protocols from the Gift of Life Michigan (GOLM) organ procurement facility. […]

murine donor hearts = test: Murine ex-vivo heart perfusion after cold preservation; design: species or system mouse
Procedure: Male and female WT or Irg1^−/− mice (Jackson laboratories, Bar Harbor, ME) were anesthetized intraperitoneally with 80 mg/kg ketamine and 5 mg/kg xylazine, anticoagulated with heparin (2,000 U/kg iv), and the heart was rapidly exposed through a sternal incision. The aorta was cannulated and retrograde perfused in-situ with HTK solution±HDAC inhibitors. After cannulation, the heart dissected free, the left atrium was opened. For 4-OI (Cayman Chemical, 25374) experiments, donor mice were treated 4-OI (dissolved in 40% β-Cyclodextrin, 50 mg/kg intraperitoneally) or vehicle control (40% β-Cyclodextrin intraperitoneally) 2 hours prior to donor heart procurement. After dissection, the heart was stored at 4° C. with HTK or HTK with VPA for a pre-designated duration. The hearts were then mounted on a Radnoti mouse Langendorff apparatus (ADInstruments inc., Colorado Springs, CO) in constant-pressure mode (˜70 mmHg) with a modified Krebs-Henseleit buffer (KHB; in mM: 118 NaCl, 4.7 KCl, 1.25 CaCl2), 1.66 MgSO4, 24.88 NaHCO3, 1.18 KH2PO4, 5.55 glucose, and 2.0 Na-pyruvate). A balloon was placed in the LV through the left atrium and left ventricular diastolic pressure was set to ˜8 mmHg at initiation. The heart was perfused with modified Krebs-Henseleit buffer for 30 min to stabilize and then hemodynamics measurements were recorded. Myocardial temperature was maintained at 37° C. LabChart software (ADInstruments inc., Colorado Springs, CO) was used to record ventricular function, perfusion pressures, cardiac chamber temperature and myocardial temperature. After perfusing the heart for 60 minutes, the heart was removed from the ex-vivo perfusion apparatus for specimen collection. Tissue was immediately placed in liquid N2 or treated with 4% formalin.

human donor hearts = test: Mass spectrometry metabolomics of cold-preserved human donor hearts
Procedure: (§2) Pig hearts underwent ex-vivo perfusion after preservation for 4 or 10 hours. Approval for human heart procurement was obtained from the University of Michigan Institutional Review Board (HUM00131275). Human donor hearts from deceased brain death donors were procured as per standard clinical protocols from the Gift of Life Michigan (GOLM) organ procurement facility. Myocardial biopsies (˜5 mm^3) of LV were biopsied immediately after cardioplegic arrest (0 h) and after 8 hours (8 h) of cold storage in a cooler containing ice. […] Causes of death were stroke (n=4), trauma (n=2), drug overdose (n=1), and cardiac arrest (n=1). Heart tissue were either fixed in formalin or snap frozen in liquid N2 for later analysis.
Metabolomics measurements were performed by the Michigan Regional Comprehensive Metabolomics Resource Core (Ann Arbor, MI, USA).

pig hearts = test: Porcine ex-vivo heart perfusion after cold preservation
Procedure: as §1, §2
For ex-vivo pig heart perfusion (FIG. 15), the ascending aorta is connected to the arterial perfusion cannula and the left atrium is closed by suturing shut the pulmonary veins. A pressure monitoring catheter and left atrial infusion catheter were then placed into the left atrial cavity and secured. The Miller conductance catheter was introduced into the left ventricular cavity for measurement of ventricular performance parameters. The Radnoti constant perfusion pressure apparatus (ADInstruments Inc., Colorado Springs, CO) was utilized for ex-vivo large animal heart perfusion. Approximately 1 liter of previously collected autologous blood was added to ˜3.5 liters of Krebs buffer and this was initially infused at 24° C. with gradual warming to 37° C. After air was removed from the perfusion system, the ascending aorta and coronaries were retrograde perfused through the arterial cannula at physiological pressure ˜80 mmHg, leading to cardiac reanimation. The perfusion pressure was kept constant at ˜80 mmHg so LV contraction would need to overcome this afterload for cardiac output. Shockable arrhythmias such as ventricular tachycardia, ventricular fibrillation, supraventricular tachycardia were electrically cardioverted to sinus rhythm by delivery of 10 or 20 joules of energy. Cardiac performance was assessed in “resting” and “working” modes (60, 61). The left atrial pressure in resting mode was typically 0-1 mmHg. To assess cardiac hemodynamics in “working mode”, perfusate was infused into the left atrium at 4-10 mmHg at the 4-hour time point for LV loading and cardiac output assessment. Because cardiac performance was highly impaired as expected at the 10-hour time point, the left atrium was loaded to a pressure of up to 15 mmHg to assess cardiac output. At 1 hour intervals, both arterial perfusate and coronary sinus blood were collected for monitoring and analysis. Oxygen pressure was kept at about pO2 150-200 mmHg while pCO2 was kept at about 35-40 mmHg. Arterial pH was maintained at 7.35-7.40 by buffering with 5% CO2 during gas exchange. The heart was perfused ex vivo for 3 hours and then arrested with 4° C. HTK solution for specimen collection in formalin or snap frozen with liquid N2. The heart was weighed at the time of procurement and at the end of perfusion. […]

[2] = human hearts during cardiac preservation
[3] = ex vivo perfused hearts compared to HTK alone

CCCC(CCC)C(=O)O [VPA, 2-Propyl-pentanoic acid]
histone acetylation (H3K9, H3K27) after prolonged cardiac preservation [1]: maintained | ex vivo contractility (murine donor hearts; HTK±VPA, cold preservation up to 16 hours): improve | cardioprotective effects of VPA with deficiency in Irg1 (murine donor hearts; Irg1−/− hearts, ex vivo perfusion and syngeneic transplant models): reduced | effect of conditional Irg1 deficiency in myeloid cells on VPA's cardioprotective effects on contractility or relaxation (murine donor hearts; LysM-Cre hearts, ex vivo perfusion model): did not impact | VPA concentration with peak cardioprotective effect (murine donor hearts; titration 5, 10 and 20 mM in HTK, 16 hours preservation): 10 mM | decrease in itaconate during cold storage (human donor hearts; cold preservation, HTK±VPA): limited | succinate production (human donor hearts; cold preservation, HTK±VPA): reduced | fumarate concentration in VPA-treated group (human donor hearts; [2]): 43.5±6.6 pmol/mg tissue | itaconate concentration in VPA-treated group (human donor hearts; [2]): 8.0±1.0 pmol/mg tissue | TnI in arterial perfusate (pig hearts): reduced | cleaved caspase 3 expression (pig hearts): decreased | heart weight (pig hearts): no difference | oxygen consumption (pig hearts): higher | total Nrf2 protein in cardiac tissue (pig hearts): increased | NRF2 nuclear translocation (pig hearts; 4 and 10 hours of preservation): induced | donor heart contractility in working mode (pig hearts; 4 h and 10 h preservation): improved | donor heart relaxation in working mode (pig hearts; 4 h and 10 h preservation): improved | oxidative DNA damage via 8-OHdG staining (pig hearts; 10 h preservation): greatly reduced | improvement of cardiac output (CO) compared with HTK alone (pig hearts; after 4 h preservation): about 25% | aortic pulse pressure magnitude (systolic minus diastolic pressure) (pig hearts; after 10 h of preservation): greater | improvement of cardiac output (CO) compared with HTK alone (pig hearts; after 10 h of preservation): 100% | systolic pressure in the left ventricular cavity (pig hearts; after 10 h of preservation): higher | perfusate concentration of IL-1β (pig hearts; after 10 hours of preservation): reduced | perfusate concentration of IL-2 (pig hearts; after 10 hours of preservation): reduced | perfusate concentration of IL-6 (pig hearts; after 10 hours of preservation): reduced | perfusate concentration of TNF-α (pig hearts; after 10 hours of preservation): reduced | expression of pro-survival protein BCL2 (pig hearts; after 10 h preservation): increased | expression of IRG1 transcript (pig hearts; [3]): increased | mRNA abundance of IL1B (pig hearts; [3]): decreased | mRNA abundance of IL6 (pig hearts; [3]): decreased | mRNA abundance of TNFA (pig hearts; [3]): decreased | oxygen consumption compared to HTK alone (pig hearts; pig hearts preserved for 10 h): greater
